The test system of one test is UCP1. As to the kind of experiment: Ucp1 promoter activity, Ucp1 mRNA and UCP1 protein in brown adipocytes. It counts as cell-based, mouse. The procedure: Using RNA-Seq, cultured human brown and beige adipocytes were interrogated for 5-HT receptor mRNA expression. Immortalized murine brown adipocytes (BAs) were treated with or without the selective 5-HT reuptake inhibitor (SSRI), paroxetine (250 nM). Subsequent studies were conducted with and without 5-HT2A agonists (1 pM-10 uM TCB-2, 1 pM-10 uM AL-34662, and 1 pM-10 uM NBOH-2C-CN) and 5-HT2A antagonists (100 fM-100 pM MDL-100907, 100 pM-10 uM xylamidine tosylate, 1 nM ketanserin, 10 nM altanserin, 100 fM-100 pM EMD-281,014, and 100 pM-10 uM sarpogrelate hydrochloride).
BA progenitors were isolated and immortalized from WT and serotonin transporter (SERT; Gene: Slc6a4) KO mice. These cells were then differentiated for 7 days to obtain mature BAs. BAs were then treated with different doses of 5-HT for 4 hours. RNA was isolated and quantified using RT-qPCR with probes specific for Slc6a4, Ucp1 and PPIA.
BA progenitors were isolated from mice expressing a transgene where the luciferase gene is driven by the Ucp1 promoter (i.e. Ucp1-Luc2 mice; a.k.a. ThermoMouse; Jackson Laboratories). Upon 9 days of differentiation, these BAs were treated for 4 hours with different doses of 5-HT. Because in vitro there is not a continuous supply of 5-HT as there is in vivo, cells were treated with paroxetine to inhibit the uptake and consequent degradation of 5-HT, and to observe 5-HT receptor specific effects. These cells were then lysed, incubated with a luciferin assay cocktail, and the light generated quantified on a microplate reader.

In the next test the target is T1, 5-HT2A (Mus musculus, UniProt P35363).
T1 construct: endogenous in cells; host or cells: immortalized murine brown adipocytes (differentiated)
As to the kind of experiment: Fluo-4 Ca2+ signals in brown adipocytes. It counts as cell-based.

The subject of another test is brown adipose tissue. As to the kind of experiment: Acute 5-HT with or without xylamidine pretreatment: BAT activity in vivo. Also on record: species or system mice. The protocol: Mice housed at 30° C. were injected with xylamidine (3 mg/kg, −2 hour), 5-HT (5 mg/kg, −1 hour) and/or CL-316,243 (1 mg/kg, −20 min). […] Interscapular surface temperature under saline (C) and CL-316,243 (D) conditions were quantified. n=6. † indicates interaction effect via 2-way ANOVA. * indicates significant difference from saline via bonferonni post-hoc test. In all graphs, bars represent mean and error bars represent S.E.M;
(§1) To investigate effects in vivo, 5-HT (5 mg/kg i.p.) was acutely administered to mice with or without a peripherally-restricted 5-HT2A antagonist (xylamidine tosylate) (3 mg/kg i.p.) to assess BAT function. Chow fed female FVBNJ mice (Jackson laboratories) were fasted for 6 hours. Each mouse was intraperitoneal injected with Vehicle (0.9% NaCl) or Xylamidine (3 mg/kg in 0.9% NaCl) at −100 minutes, followed by Vehicle or 5-HT (5 mg/kg in 0.9% NaCl) at −40 minutes, and finally Glucose ([…]) at 0 minutes. Blood glucose was monitored at the indicated times (FIG. 22). Chow mice were administered xylamidine tosylate (3 mg/kg daily) via intraperitoneal injection for ˜5 weeks. Mice were then moved to anaesthetized and injected with either saline or CL-316,243. Oxygen consumption was recorded while at 30° C. Finally, xylamidine tosylate (3 mg/kg i.p. daily) was administered to mice on a HFD and indices of whole body metabolism, such as resting energy expenditure, glucose tolerance and NAFLD, were evaluated. The mRNA and protein expression of markers of beige adipose tissue (UCP1, PRDM16, NDUFB8, SDHB, MTCO1, UQCRC2 and ATP5A) were also evaluated.

The subject of another test is BAT cells. As to the kind of experiment: Serotonin on isoproterenol-stimulated cAMP and thermogenic program in BAT cells. It counts as cell-based, mouse. Conditions: serotonin prior to isoproterenol. The protocol: To examine whether serotonin could alter cAMP and the induction of the thermogenic program in a cell autonomous manner, BAT cells were treated with the concentrations of serotonin observed in the BAT of Tph1^+/+ mice fed a HFD (FIG. 9b) prior to stimulation with isoproterenol ([…]). Serotonin treatment attenuated isoproterenol-stimulated cAMP and phosphorylation of protein kinase A substrates such as hormone sensitive lipase (HSL […]-FIG. 9c) and importantly also blunted the induction of the thermogenic gene program (FIG. 9d-f). […] Cell Culture. An immortalized brown adipocyte (BA) cell line derived from mouse fetal brown fat (as described in Uldry et al., Cell metabolism, 3 (2006) 333-341) was cultured and differentiated as previously described in Mottillo, Journal of Biological Chemistry, 287 (2012) 25038-25048. Briefly, confluent cells were placed in induction media (0.5 mM IBMX; 0.25 mM indomethacin; 2 μg/ml dexamethasone; 1 nM T3, 20 nM insulin) for two days and subsequently maintained on differentiation media (1 nM T3, 20 nM insulin). All experiments were performed on cultures 6-8 days post-induction. Unless otherwise indicated, cells were rinsed with PBS and media was changed to HEPES-buffered Krebs Ringer buffer (HKRB)+1% BSA. Where indicated, BAs were treated with serotonin for 30 min (100 μM; Sigma) followed by isoproterenol (1 nM, Sigma) for 4 h. […] cAMP measurements. cAMP levels were measured in BA stimulated for 10 min with isoproterenol (1 nM). […] The cAMP levels were quantified by ELISA (Biomedical Technologies Inc.) as previously described (Mottillo et al., American Journal of Physiology-Endocrinology And Metabolism, 301 (2011) […]-[…]). […] The expression pattern of various genes was quantified by qRT-PCR analysis, as previously described (Mottillo et al., American journal of physiology, 293 (2007) […]-1197). […] 25 ng of cDNA was analyzed in a 10 μl quantitative PCR reaction (Amplitaq Gold) as previously described. […] The extracts were recovered and proteins were quantified by using the bicinchoninic acid method (Pierce). […]

Another test concerns 5-HT receptor. As to the kind of experiment: Isoproterenol-induced lipolysis (FFA release) in immortalized BAT cells. It counts as cell-based, mouse. Particulars: 5-HT at 100 μM, n=2.
A further test concerns mice on a HFD. As to the kind of experiment: Chronic xylamidine tosylate in mice on a HFD. It counts as in vivo. The procedure: (B) graphically depicts the fat content of mice from (A). […] Bars/points represent mean and error bars indicate S.E.M;
as §1

The next test deals with Chow mice. Briefly: Repeated xylamidine tosylate in chow mice: BAT energy expenditure with saline or CL-316,243. It counts as in vivo. The protocol:
as §1

Test [1] concerns Chow fed female FVBNJ mice. Briefly: Acute xylamidine, 5-HT and glucose injection: glucose tolerance. It counts as in vivo. Conditions: acute administration 3 mg/kg i.p.; effect larger when pre-treated with 5-HT. The protocol: as §1
The mark [2] stands for this setting: chronic administration, high fat diet.

The record followed here is patent US11278549B2, “Method of treating obesity” (McMaster University, priority 2013, dated 2022).

T1 sequence (P35363 whole entry): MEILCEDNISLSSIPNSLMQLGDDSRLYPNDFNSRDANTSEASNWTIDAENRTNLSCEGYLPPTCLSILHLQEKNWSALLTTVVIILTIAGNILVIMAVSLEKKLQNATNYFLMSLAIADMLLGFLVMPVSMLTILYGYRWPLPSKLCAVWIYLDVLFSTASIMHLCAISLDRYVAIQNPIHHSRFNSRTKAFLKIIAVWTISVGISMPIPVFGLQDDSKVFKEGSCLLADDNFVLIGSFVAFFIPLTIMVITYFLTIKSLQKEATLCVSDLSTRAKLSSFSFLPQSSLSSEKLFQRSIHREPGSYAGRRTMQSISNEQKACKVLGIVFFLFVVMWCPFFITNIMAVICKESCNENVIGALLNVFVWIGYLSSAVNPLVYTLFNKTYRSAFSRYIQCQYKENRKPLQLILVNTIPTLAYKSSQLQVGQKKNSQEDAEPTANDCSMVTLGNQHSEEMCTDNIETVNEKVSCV
Method for 5-HT receptor: Briefly, confluent cells were placed in induction media (0.5 mM IBMX; 0.25 mM indomethacin; 2 μg/ml dexamethasone; 1 nM T3, 20 nM insulin) for two days and subsequently maintained on differentiation media (1 nM T3, 20 nM insulin). All experiments were performed on cultures 6-8 days post-induction. Unless otherwise indicated, cells were rinsed with PBS and media was changed to HEPES-buffered Krebs Ringer buffer (HKRB)+1% BSA. Where indicated, BAs were treated with serotonin for 30 min (100 μM; Sigma) followed by isoproterenol (1 nM, Sigma) for 4 h. The serotonin receptor antagonist, methysergide (3 μM) was used 45 min prior treatment with serotonin as above.
From the text for 5-HT2A: Immortalized BA progenitor cells obtained from 5-HT2A KO (B6; 129-5-HT2Atm1a/Nju from Nanjing Biomedical Research Institute of Nanjing University) mice were differentiated for 9 days to produce mature BAs. Cells were then stained with fluo-4 and treated with different concentrations of 5-HT to obtain a dose response curve. Values from BAs expressing 5-HT2A used for other experiments were plotted as a WT comparison.

With `NCCc1c[nH]c2ccc(O)cc12` [5-HT, 5-hydroxytryptamine], in the test with UCP1 (brown adipocytes), the “Ucp1 mRNA” value is “decreased” and the Ucp1 promoter activity entry is “decreased”. In addition, the UCP1 protein levels entry in the test with UCP1 (brown adipocytes, chronic treatment for NBOH-2C-CN) was “decreased”. In addition, the UCP1 protein content entry in the test with UCP1 (cultured brown adipocytes, only in the presence of paroxetine (SSRI), 8 days) is listed as “decreased”. Further, on 5-HT2A (brown adipocytes stained with Fluo-4, agonist treatment), the “Ca2+ levels” value was “increased”. Further, the “brown adipose tissue associated oxygen consumption and inter-scapular surface area temperature” value in the test on brown adipose tissue (BAT activated with CL-316,243, 5 mg/kg 5-HT) is “significantly attenuated”. In the test with brown adipose tissue (thermoneutral conditions, BAT inactive (saline), 5 mg/kg 5-HT), the “markers of brown adipose tissue activity (VO2, interscapular surface temperature)” value is recorded as “no effect”. In the test on BAT cells, the “isoproterenol-stimulated cAMP” value is given as “attenuated” and the “phosphorylation of protein kinase A substrates (HSL S660)” value is given as “attenuated”. Also, the “induction of the thermogenic gene program” value in the test on BAT cells (Pgc1a, Pdk4, Ucp1) is reported as “blunted”. Besides, the “isoproterenol-induced increases in lipolysis” value with 5-HT receptor was “blunts”.
On to `COc1cccc(OC(C)CNC(=N)Cc2cccc(C)c2)c1.Cc1ccc(S(=O)(=O)O)cc1` (stereo not shown) [xylamidine tosylate], for which the “oxygen consumption, heat production, and non-moving oxygen consumption” value in the test on mice on a HFD (3 mg/kg daily, high fat diet) is given as “increased”. Moreover, the glucose tolerance result with mice on a HFD (3 mg/kg daily, high fat diet (45% of calories from fat)) was “improved”. Besides, in the test with mice on a HFD (setting [2]), the “iWAT levels of UCP1 and mitochondrial proteins” value is “increased”; the “iWAT mRNA levels of Prdm16” value was “elevated”; the liver triglycerides levels result is given as “significantly reduced”; the “weight gain and increases in fat mass” value is “prevented”. Moreover, on 5-HT2A (pre-treatment with antagonist), the “5-HT induced Ca2+ transients” value is recorded as “attenuated”. Also, the “brown adipose tissue specific energy expenditure” value with Chow mice (chow mice, repeated administration 3 mg/kg daily ~5 weeks, CL-316,243) was “increased”. In the test on Chow mice (saline), the “energy expenditure when BAT is inactive” value is “no effect”. Also, the “effects of 5-HT on BAT activity” value in the test on brown adipose tissue (pre-treatment 3 mg/kg, CL-316,243 activated BAT) is reported as “completely blocked”. The glucose tolerance entry in test [1] is “improved”.
